The values below come from PMC12112773, “Chemical Constituents and α-Glucosidase Inhibitory Activities of the Leaves of Embelia parviflora—In Vitro and In Silico Studies” (Life, 2025).

Read-outs that look alike come from different tables or passages of the source.

Assay [1] addresses T1, α-glucosidase from Saccharomyces cerevisiae (Saccharomyces cerevisiae, UniProt P53341).
T1 construct: purchased Sigma Aldrich (St. Louis, MO, USA)
Nature of the assay: in vitro assay of α-glucosidase enzyme inhibition (p-nitrophenyl α-D-glucopyranoside substrate). It is filed as biochemical.
Method: Enzyme α-glucosidase from Saccharomyces cerevisiae (E.C. 232-604-7) and p-nitrophenyl-α-D-glucopyranoside were purchased from Sigma Aldrich (St. Louis, MO, USA).
The in vitro assay of α-glucosidase enzyme inhibition of the E. parviflora MeOH extract and tested compounds was conducted following the methodology outlined in our earlier study [38]. Briefly, solutions of MeOH extract and isolated compounds at 256 μg/mL, 64 μg/mL, 16 μg/mL, 4 μg/mL, and 1 μg/mL concentrations were prepared using DMSO (Merck). The compound solution (2 μL) and 0.2 U/mL α-glucosidase enzyme solution (25 µL) in 120 µL phosphate buffer were mixed. After 5 min preincubation, a solution of 2.5 mM p-nitrophenyl α-D-glucopyranoside (25 µL) prepared in phosphate buffer was added. The reaction mixture was incubated at 37 °C for 30 min and was stopped by adding 0.2 M of Na2CO3 (100 µL). Enzymatic activity (the absorbance of the released p-nitrophenol) was quantified by measuring at 410 nm using a Biotek reader. The % inhibition was calculated using the following equation:Inhibition (%) = [1 − (Asample/Acontrol)] × 100
The biological experiments were performed in triplicate. The IC50 values are presented as the mean ± standard deviation (S.D) using the program Statistica 10.

A further assay concerns the target α-glucosidase. The note with it: cited from earlier work.
Setting [2] is: mean ± S.D, triplicate, 37 °C, 30 min, read-out: α-Glucosidase inhibitory activity IC50.

T1 sequence (P53341 whole entry): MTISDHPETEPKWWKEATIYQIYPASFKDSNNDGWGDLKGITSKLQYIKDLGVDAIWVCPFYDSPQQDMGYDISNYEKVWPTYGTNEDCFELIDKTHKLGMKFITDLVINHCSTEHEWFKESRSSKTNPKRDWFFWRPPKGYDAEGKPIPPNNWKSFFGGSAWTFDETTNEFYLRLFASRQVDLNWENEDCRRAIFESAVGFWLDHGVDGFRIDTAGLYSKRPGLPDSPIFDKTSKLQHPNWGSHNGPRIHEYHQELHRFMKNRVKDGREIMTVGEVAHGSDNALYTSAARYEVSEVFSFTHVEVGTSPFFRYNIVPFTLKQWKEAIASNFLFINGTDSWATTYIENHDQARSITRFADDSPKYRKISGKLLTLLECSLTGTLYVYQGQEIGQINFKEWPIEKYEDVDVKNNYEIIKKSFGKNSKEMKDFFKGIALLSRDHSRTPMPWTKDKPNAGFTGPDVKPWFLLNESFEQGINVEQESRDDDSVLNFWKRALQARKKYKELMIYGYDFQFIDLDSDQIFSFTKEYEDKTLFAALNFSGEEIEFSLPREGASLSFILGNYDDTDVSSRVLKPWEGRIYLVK

Consider `CC[C@H](CC[C@@H](C)[C@H]1CC[C@H]2[C@@H]3CC=C4C[C@@H](O)CC[C@]4(C)[C@H]3CC[C@]12C)C(C)C` [Compound 1, β-sistosterol], for which the 50% inhibitory concentration (IC50) in assay [1] (setting [2]) is > 617 µM. For the same molecule, the “anti-α-glucosidase activity IC50” value at α-glucosidase was 283.67 µg/mL.
On to `CC[C@H](CC[C@@H](C)[C@H]1CC[C@H]2[C@@H]3CC=C4C[C@@H](O[C@@H]5O[C@H](CO)[C@@H](O)[C@H](O)[C@H]5O)CC[C@]4(C)[C@H]3CC[C@]12C)C(C)C` [Compound 2, daucosterol], for which the 50% inhibitory concentration (IC50) in assay [1] (setting [2]) was > 444 µM. In addition, on α-glucosidase, the “anti-α-glucosidase activity IC50” value was 247.35 µg/mL.
On to `CCCCCCCCCCCCCCCC(=O)OC[C@H]1O[C@@H](O[C@H]2CC[C@@]3(C)C(=CCC4C3CC[C@@]3(C)C4CC[C@@H]3[C@H](C)/C=C/[C@@H](CC)C(C)C)C2)[C@H](O)[C@@H](O)[C@@H]1O` (stereo partly drawn) [Compound 3, 3-O-(6′-O-palmitoyl)-β-D-glucopyranosyl stigmasterol], for which the IC50 in assay [1] (setting [2]) was > 315 µM.
Regarding `C[C@H]1[C@H](C)CC[C@]2(C(=O)O)CC[C@]3(C)C(=CC[C@@H]4[C@@]5(C)CC[C@H](O)C(C)(C)[C@@H]5CC[C@]43C)[C@H]12` [Compound 4, ursolic acid], the IC50 in assay [1] was 3.07 µM. Also, the manner of inhibition result in the assay on α-glucosidase is reported as “non-competitive”.
On to `C[C@@H]1O[C@@H](Oc2c(-c3ccc(O)c(O)c3)oc3cc(O)cc(O)c3c2=O)[C@H](O)[C@H](O)[C@H]1O` [Compound 7, quercitrin], for which the half-inhibitory concentration (IC50) in assay [1] is 375 µM; on α-glucosidase (Dang's group, read-out: α-glucosidase inhibitory activity IC50) it was 26.5 µM.
For `CC1OC(Oc2c(-c3ccc(O)c(OC4OC(CO)C(O)C(O)C4O)c3)oc3cc(O)cc(O)c3c2=O)C(O)C(O)C1O` (stereo not drawn) [Compound 8, quercetin-3-rhamnoside-3′-glucoside], the 50% inhibitory concentration (IC50) in assay [1] (setting [2]) is > 419 µM.
Regarding `CC1=CC(=O)CC(C)(C)[C@H]1/C=C/[C@@H](C)O` [Compound 9, (6R,9R)-9-hydroxy-4,7-megastigmadien-3-one], in assay [1] (setting [2]), the IC50 was > 1230 µM.
Turning to `CC(=O)C=C=C1C(C)(C)C[C@H](O)C[C@]1(C)O` [Compound 10, grasshopper ketone], in assay [1] (setting [2]), the half-maximal inhibitory concentration (IC50) is > 1140 µM.
On to `CC1=CC(=O)CC(C)(C)[C@H]1/C=C/[C@@H](C)O[C@@H]1O[C@H](CO[C@@H]2OC[C@](O)(CO)[C@H]2O)[C@@H](O)[C@H](O)[C@H]1O` [Compound 11, (6R,7E,9R)-9-hydroxy-4,7-megastigmadien-3-one-9-O-β-D-apiofuranosyl(1->6)-β-D-glucopyranoside], for which the IC50 in assay [1] (setting [2]) was > 509 µM.
Turning to `CC1=CC(=O)CC(C)(C)[C@@]1(O)/C=C/[C@@H](C)O` [Compound 12, vomifoliol], the IC50 in assay [1] is > 1140 µM. Besides, in the assay with α-glucosidase, the “α-glucosidase inhibitory activity (in words)” value is “inactive”.
In the case of `COC(=O)/C=C/c1ccc(O)cc1` [Compound 13, methyl trans-p-coumarate], the IC50 in assay [1] (setting [2]) was > 1440 µM; on α-glucosidase (read-out: inhibition of α-glucosidase IC50), 54.1 µM.
Take `CC1=C(O)C(=O)OC1C` (stereo not drawn) [Compound 16, sotolone]: the IC50 in assay [1] (setting [2]) is > 2000 µM.

For orientation: IC50 means the concentration that inhibits the measured activity by half.
